Laboratory results as given in PMC8292346, “Dysfunction of the key ferroptosis-surveilling systems hypersensitizes mice to tubular necrosis during acute kidney injury” (Nature Communications, 2021).
Values joined by “and” are separate entries in the source; they are usually repeats but may differ in a detail not shown here. Equal entries are not always repeated.

Assays:
[1] = tested on: HT29 cells; test: TSZ-induced necroptosis, 7-AAD/annexin V flow cytometry; format: cell-based, human; conditions: Nec-1f 10 µM
Procedure: (§1) To induce necroptosis in a human cell line, HT29 cells were stimulated at the indicated time points with 20 ng/ml human TNFα (Biolegend), 1 μM SMAC-mimetics (Birinapant, Chemietek), and 20 μM zVAD-fmk (Selleckchem, herein referred to as zVAD). For the induction of necroptosis in NIH3T3 cells, cells were incubated with 20 ng/ml TNF-α and 20 μM zVAD for indicated time points. […] Cells were seeded in six-well plates or petri dishes. […] After indicated time points, cells were collected and prepared for flow cytometry, immunoblotting, and/or LDH release assays.
(§2) Cells were harvested and the pellets were washed twice in PBS and stained with 5 μl of 7-AAD (BD Biosciences) and 5 μl of annexin-V-FITC (BD Biosciences) added to 100 μl annexin-V binding buffer (BD Biosciences). After 15 min, cells were recorded on the LSRII with the FACS Diva 6.1.1 software (BD Biosciences) and subsequently analyzed with the FlowJo v10 software (Tree Star).

[2] = tested on: MLKL; test: Western blot of pMLKL (S358) in TSZ-treated HT29 cells; format: cell-based, human; conditions: Nec-1s 10 µM, Fer-1 1 µM, Nec-1f 10 µM
Procedure: as §1
(§3) Cells were lysed in ice-cold 10 mM Tris-HCl, pH 7.5, 50 mM NaCl, 1% Triton X-100, 30 mM sodium pyrophosphate, 50 mM NaF, 100 μM Na3VO4, 2 μM ZnCl2, and 1 mM phenylmethylsulfonyl fluoride (PMSF, modified Frackelton buffer) for 30 min on ice. Insoluble material was removed by centrifugation (14 000×g, 30 min, 4 °C). Protein concentration was determined using a commercial Bradford assay kit according to the manufacturer’s instructions (Thermo Fisher). Equal amounts of protein (typically 30 μg per lane) were resolved on a 4%−15% gradient SDS/PAGE gel and transferred to a PVDF membrane (BIO-RAD). Primary antibody incubation was performed for anti-pS166-RIPK1 (Cell Signaling, Cat# 65746, 1:1000 dilution), anti-pS358-MLKL, (Abcam, ab187091, 1:1000 dilution), anti-MLKL (Genetex, GTX107538, 1:1000 dilution) and anti-β-Actin (Cell Signaling, Cat# 3700S, 1:1000 dilution). Secondary antibodies (anti-mouse, HRP-linked antibody, Cell Signaling, Cat# 7076S; anti-rabbit, HRP-linked antibody, Cell Signaling, Cat# 7074S) were applied at concentrations of 1:5.000 (also see Supplementary Table 1 for details). Proteins were then visualized by enhanced chemiluminescence (ECL; Amersham Biosciences).

[3] = tested on: RIPK1; test: Western blot of pRIPK1 (S166) in TSZ-treated HT29 cells; format: cell-based, human; conditions: Nec-1s 10 µM, Fer-1 1 µM, Nec-1f 10 µM
Procedure: as §1, §3

[4] = tested on: HT1080 cells; test: Ferroptosis inducers (FINs)/ferroptocide, 7-AAD/annexin V flow cytometry; format: cell-based, human; conditions: Nec-1s 30 µM, Nec-1f 30 µM; for double-negative events (7-AAD/annexin V): alone (DMSO) or with Fer-1 1 µM
[5] = tested on: NIH3T3 cells; test: as above; format: cell-based, murine; conditions: alone (DMSO) or with Fer-1 1 µM, Nec-1s 30 µM, Nec-1f 30 µM
Procedure: as §1, §2

[6] = tested on: NIH3T3 cells; test: Simultaneous ferroptosis and necroptosis (RSL3 plus TZ), 7-AAD/annexin V flow cytometry; format: cell-based, murine; conditions: NIH3T3, 16 h
Procedure: as §1, §2

[7] = tested on: HT1080 cells; test: CellTiter-Glo luminescent cell viability assay (ATP), dose-response; format: cell-based, human
Procedure: Cells were plated in an opaque-walled 96-well plate and treatment with ferroptosis inducers and/or ferroptosis inhibitors was initiated 24 h later. […] Here, the reaction agent was directly added to the wells, mixed on an orbital shaker for 2 min, and then incubated at room temperature for 10 min. The luminescence was detected using a Promega GloMax® instrument.

[8] = tested on: Mouse cortical tubule cells (MCT); test: FINs/ferroptocide, 7-AAD/annexin V flow cytometry; format: cell-based; conditions: MCT, alone (DMSO) or with Fer-1 1 µM, Nec-1s 30 µM, Nec-1f 30 µM
Procedure: as §1, §2

[9] = tested on: CD10-135 cells; test: FINs/ferroptocide, LDH release assay; format: cell-based, human; parameters: LDH release: unit not given here; conditions: Nec-1f 30 µM
[10] = tested on: NIH3T3 cells; test: Ferroptosis inducers (FINs)/ferroptocide, 7-AAD/annexin V flow cytometry; format: cell-based, murine; conditions: individual replicates
[11] = tested on: C57Bl/6 N mice; test: Bilateral kidney ischemia-reperfusion injury, severe model (38 min ischemia), survival; conditions: single dose 2 mg/kg body weight before reperfusion

CN1C(=O)NC(Cc2c[nH]c3c(Cl)cccc23)C1=O (stereo not drawn) [Nec-1s, necrostatin-1s]
7-AAD/annexin V flow cytometry, source data of bar graph Fig2e ([1]; HT29, TSZ (TNFα 20 ng/ml, birinapant 1 µM, zVAD-fmk 20 µM) 16 h): 77% and 78.7% and 91.4% and 88.7% | Protection against TSZ-induced necroptosis (7-AAD/annexin V, words) ([1]; HT29, TSZ): maintained double negativity | Phosphorylation of MLKL (pS358), western blot [2]: comparable between Nec-1s and Nec-1f | Phosphorylation of RIPK1 at S166, western blot [3]: prevented phosphorylation at S166 in RIPK1 | double-negative events (7-AAD/annexin V) ([4]; HT1080, 1.13 µM RSL3 6 h): 45.5% and 30.5% and 56.9% and 58.4% | double-negative events (7-AAD/annexin V) ([4]; HT1080, 10 µM FIN56 24 h): 88.1% and 85.1% and 82.1% | double-negative events (7-AAD/annexin V) ([4]; HT1080, 10 µM ferroptocide 24 h): 42.7% and 26.5% | Inhibition of cell death induction by FINs/ferroptocide ([4]; HT1080, Fer-1 1 µM): but not by Nec-1s | double-negative events (7-AAD/annexin V) ([5]; NIH3T3, 5 µM erastin 24 h): 10.2% and 2.01% and 4.47% and 2.99% | double-negative events (7-AAD/annexin V) ([5]; NIH3T3, 10 µM FIN56 24 h): 88.9% and 92.9% and 90.2% | double-negative events (7-AAD/annexin V) ([5]; NIH3T3, 10 µM FINO2 24 h): 6.67% and 1.36% and 2.97% and 1.72% and 7.65% and 9.33% | Rescue from necrosis induced by RSL3 plus TZ [6]: fail to rescue | ATP luminescence (CellTiterGlo) ([7]; HT1080 + Erastin, inhibitor concentration 0.01 (unit not given)): 6.2776% | ATP luminescence (CellTiterGlo) ([7]; HT1080 + Erastin, inhibitor concentration 0.1 (unit not given)): 6.426% | ATP luminescence (CellTiterGlo) ([7]; HT1080 + Erastin, inhibitor concentration 1 (unit not given)): 6.611% | ATP luminescence (CellTiterGlo) ([7]; HT1080 + Erastin, inhibitor concentration 10 (unit not given)): 6.739% | ATP luminescence (CellTiterGlo) ([7]; HT1080 + Erastin, inhibitor concentration 30 (unit not given)): 13.0792% | ATP luminescence (CellTiterGlo) ([7]; HT1080 + Ferroptocide, inhibitor concentration 0.01 (unit not given)): 2.171% and 0.348% | ATP luminescence (CellTiterGlo) ([7]; HT1080 + Ferroptocide, inhibitor concentration 0.1 (unit not given)): 7.287% and 1.309% | ATP luminescence (CellTiterGlo) ([7]; HT1080 + RSL3, inhibitor concentration 0.01 (unit not given)): 48.9951% and 58.0398% | ATP luminescence (CellTiterGlo) ([7]; HT1080 + RSL3, inhibitor concentration 0.1 (unit not given)): 48.7049% and 62.3771% | ATP luminescence (CellTiterGlo) ([7]; HT1080 + RSL3, inhibitor concentration 1 (unit not given)): 60.6314% and 81.5005% | ATP luminescence (CellTiterGlo) ([7]; HT1080 + RSL3, inhibitor concentration 10 (unit not given)): 61.8212% and 84.0786% | double-negative events (7-AAD/annexin V) ([8]; 5 µM erastin 24 h): 60.5% and 85.4% and 84.9% and 77.6% | double-negative events (7-AAD/annexin V) ([8]; 10 µM FIN56 24 h): 93.3% and 88% and 89.2% | LDH release ([9]; CD10-135, FIN56 alone (FIN) or with Fer-1, Nec-1s): 86.05 and 52.2984 and 63.7092 | LDH release ([9]; CD10-135, FINO2 alone (FIN) or with Fer-1, Nec-1s): 71.57 and 72.5571 and 70.4933 | LDH release ([9]; CD10-135, RSL3 alone (FIN) or with Fer-1, Nec-1s): 64.62 and 54.5823 | LDH release ([9]; CD10-135, erastin alone (FIN) or with Fer-1, Nec-1s): 93.98 and 95.3511 and 88.9965 | LDH release ([9]; CD10-135, ferroptocide alone (FIN) or with Fer-1, Nec-1s): 100 and 93.4978 | cells in 7-AAD/annexin V flow cytometry (FigS9b) ([10]; Erastin-induced ferroptosis): 17.0% and 14.0% and 10.0% | cells in 7-AAD/annexin V flow cytometry (FigS9b) ([10]; FIN56-induced ferroptosis): 57.0% and 34.0% | cells in 7-AAD/annexin V flow cytometry (FigS9b) ([10]; FINO2-induced ferroptosis): 63.0% and 21.0% | cells in 7-AAD/annexin V flow cytometry (FigS9b) ([10]; Ferroptocide-induced cell death): 80.0% and 5.0% | cells in 7-AAD/annexin V flow cytometry (FigS9b) ([10]; RSL3-induced ferroptosis): 71.0% and 41.0% | Survival after severe renal IRI vs vehicle (Kaplan-Meier, words) [11]: not statistically significant
